Structures can show the parent of a compound that is named as a salt.
Target: T1, recombinant human beta tryptase (Homo sapiens, UniProt P20231)
T1 construct: made in house; host or cells: yeast cells
Experiment: beta-Tryptase inhibition, chromogenic enzyme assay (substrate S2366, read at 405 nm)
Type: biochemical
Conditions: Ki calculated from IC50: Ki=IC50/(1+[Substrate]/Km); 0.5 mM substrate, room temperature; read-out: Tryptase Ki
Procedure, shortened: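 Recombinant human beta tryptase (yeast-expressed; native lung enzyme also used), 50 ng/mL final, with 0.5 mM (2×Km) chromogenic substrate S2366; 30 min in the dark, room temperature, read at 405 nm. Compounds at 0.01-10 μM in duplicate for IC50; Ki=IC50/(1+[S]/Km).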

T1 sequence (P20231 31-275): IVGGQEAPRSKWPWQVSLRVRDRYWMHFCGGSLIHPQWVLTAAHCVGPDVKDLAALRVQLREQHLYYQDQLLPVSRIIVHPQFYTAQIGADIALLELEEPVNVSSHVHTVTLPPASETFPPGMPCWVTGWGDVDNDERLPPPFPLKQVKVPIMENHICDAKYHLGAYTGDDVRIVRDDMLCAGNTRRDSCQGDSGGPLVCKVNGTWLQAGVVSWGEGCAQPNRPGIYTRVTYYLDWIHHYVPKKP

Q: With `COCCn1cc(C(=O)N2CCC(c3cc(CN)ccc3F)CC2)c2c(Cl)cccc21` [Example 42, [4-(5-Aminomethyl-2-fluoro-phenyl)-piperidin-1-yl]-[4-chloro-1-(2-methoxy-ethyl)-1H-indol-3-yl]-methanone] as the compound, how does the Ki read?
A: 123 nM

Q: Which Ki does the source give for `COCCn1cc(C(=O)N2CCC(c3cc(CN)ccc3F)CC2)c2c(-c3ccncc3)cccc21` [Example 56, [4-(5-Aminomethyl-2-fluoro-phenyl)-piperidin-1-yl]-[1-(2-methoxy-ethyl)-4-pyridin-4-yl-1H-indol-3-yl]-methanone] here?
A: 9 nM

Q: With `COCCn1cc(C(=O)N2CCC(c3cc(CN)ccc3F)CC2)c2c(-c3cncc(F)c3)cccc21` [Example 84, [4-(5-Aminomethyl-2-fluoro-phenyl)-piperidin-1-yl]-[4-(5-fluoro-pyridin-3-yl)-1-(2-methoxy-ethyl)-1H-indol-3-yl]-methanone dihydrochloride] as the compound, how does the Ki read?
A: 22 nM

Same assay, conditions: Tryptase Ki (nM), Ki calculated from IC50: Ki=IC50/(1+[Substrate]/Km); 0.5 mM substrate, room temperature

Q: With `COCCn1cc(C(=O)N2CCC(c3cc(CN)ccc3F)CC2)c2c(C(=O)N3CCOCC3)cccc21.Cl` [Example 59, [3-[4-(5-Aminomethyl-2-fluoro-phenyl)-piperidine-1-carbonyl]-1-(2-methoxy-ethyl)-1H-indol-4-yl]-morpholin-4-yl-methanone hydrochloride] as the compound, how does the Ki read?
A: 32 nM

Q: Which Ki does the source give for `COCCn1cc(C(=O)N2CCC(c3cc(CN)ccc3F)CC2)c2c(N)cccc21` [Example 75, [4-(5-Aminomethyl-2-fluoro-phenyl)-piperidin-1-yl]-[4-amino-1-(2-methoxy-ethyl)-1H-indol-3-yl]-methanone hydrochloride] here?
A: 59 nM

Q: With `COCCn1cc(C(=O)N2CCC(c3cc(CN)ccc3F)CC2)c2c(NS(=O)(=O)c3cn(C)cn3)cccc21` [Example 105, 1-Methyl-1H-imidazole-4-sulfonic acid [3-[4-(5-aminomethyl-2-fluoro-phenyl)-piperidine-1-carbonyl]-1-(2-methoxy-ethyl)-1H-indol-4-yl]-amide hydrochloride] as the compound, how does the Ki read?
A: 100 nM

Q: With `COCCn1cc(C(=O)N2CCC(c3cc(CN)ccc3F)CC2)c2c(NC(=O)c3ccncc3)cccc21` [Example 101, N-[3-[4-(5-Aminomethyl-2-fluoro-phenyl)-piperidine-1-carbonyl]-1-(2-methoxy-ethyl)-1H-indol-4-yl]-isonicotinamide hydrochloride] as the compound, how does the Ki read?
A: 11 nM

Q: With `COCCn1cc(C(=O)N2CCC(c3cc(CN)ccc3F)CC2)c2c(NS(=O)(=O)N(C)C)cccc21` [Example 104, Dimethylamino-1-sulfonic acid [3-[4-(5-aminomethyl-2-fluoro-phenyl)-piperidine-1-carbonyl]-1-(2-methoxy-ethyl)-1H-indol-4-yl]-amide] as the compound, how does the Ki read?
A: 204 nM

Q: For `NCc1ccc(F)c(C2CCN(C(=O)c3cn(CCOC(F)(F)F)c4c(Cl)cccc34)CC2)c1` [Example 87, hydrochloride], which Ki is on record?
A: 207 nM

Q: With `NCc1ccc(F)c(C2CCN(C(=O)c3cn(CCOCCO)c4c(OC(F)(F)F)cccc34)CC2)c1` [Example 27, [4-(5-Aminomethyl-2-fluoro-phenyl)-piperidin-1-yl]-{1-[2-(2-hydroxy-ethoxy)-ethyl]-7-trifluoromethoxy-1H-indol-3-yl}-methanone hydrochloride] as the compound, how does the Ki read?
A: 164 nM

Q: For `COCCn1cc(C(=O)N2CCC(c3cc(CN)ccc3OCC(=O)OC)CC2)c2cccc(OC(F)(F)F)c21` [Example 24, (4-Aminomethyl-2-{1-[1-(2-methoxy-ethyl)-7-trifluoromethoxy-1H-indole-3-carbonyl]-piperidin-4-yl}-phenoxy)-acetic acid methyl ester hydrochloride], which Ki is on record?
A: 98 nM

Q: Which Ki does the source give for `COCCn1cc(C(=O)N2CCC(c3cc(CN)ccc3F)CC2)c2cccc(OC(F)(F)F)c21` [Example 1, [4-(5-Aminomethyl-2-fluoro-phenyl)-piperidin-1-yl]-[1-(2-methoxy-ethyl)-7-trifluoromethoxy-1H-indol-3-yl]-methanone hydrochloride] here?
A: 47 nM

Q: With `COCCn1cc(C(=O)N2CCC(c3cc(CN)ccc3F)CC2)c2c(OC(F)(F)F)cccc21` [Example 54, [4-(5-Aminomethyl-2-fluoro-phenyl)-piperidin-1-yl]-[1-(2-methoxy-ethyl)-4-trifluoromethoxy-1H-indol-3-yl]-methanone hydrochloride] as the compound, how does the Ki read?
A: 96 nM

Q: Which Ki does the source give for `Cc1cccc2c(C(=O)N3CCC(c4cc(CN)ccc4F)CC3)cn(CCN3CCOCC3)c12` [Example 3, [4-(5-Aminomethyl-2-fluoro-phenyl)-piperidin-1-yl]-[7-methyl-1-(2-morpholin-4-yl-ethyl)-1H-indol-3-yl]-methanone hydrochloride] here?
A: 109 nM

Q: Which Ki does the source give for `COCCn1cc(C(=O)N2CCC(c3cc(CN)ccc3F)CC2)c2c(N(C)C)cccc21` [Example 77, [4-(5-Aminomethyl-2-fluoro-phenyl)-piperidin-1-yl]-[4-dimethylamino-1-(2-methoxy-ethyl)-1H-indol-3-yl]-methanone hydrochloride] here?
A: 57 nM

Q: For `NCc1ccc(F)c(C2CCN(C(=O)c3cn(CCOC(F)(F)F)c4cccc(Br)c34)CC2)c1` [Example 79, 4-(5-Aminomethyl-2-fluoro-phenyl)-piperidin-1-yl]-[4-bromo-1-(2-trifluoromethoxy-ethyl)-1H-indol-3-yl]-methanone hydrochloride], which Ki is on record?
A: 935 nM

Q: Which Ki does the source give for `NCc1ccc(F)c(C2CCN(C(=O)c3cn(CCCF)c4c(OC(F)(F)F)cccc34)CC2)c1` [Example 34, [4-(5-Aminomethyl-2-fluoro-phenyl)-piperidin-1-yl]-[1-(3-fluoro-propyl)-7-trifluoromethoxy-1H-indol-3-yl]-methanone hydrochloride] here?
A: 1010 nM

Q: With `COCCn1cc(C(=O)N2CCC(c3cc(CN)ccc3F)CC2)c2c(-c3cccs3)cccc21` [Example 64, [4-(5-Aminomethyl-2-fluoro-phenyl)-piperidin-1-yl]-[1-(2-methoxy-ethyl)-4-thiophen-2-yl-1H-indol-3-yl]-methanone hydrochloride] as the compound, how does the Ki read?
A: 39 nM

Q: For `CNc1cccc2c1c(C(=O)N1CCC(c3cc(CN)ccc3F)CC1)cn2CCOC` [Example 76, [4-(5-Aminomethyl-2-fluoro-phenyl)-piperidin-1-yl]-[4-methylamino-1-(2-methoxy-ethyl)-1H-indol-3-yl]-methanone hydrochloride], which Ki is on record?
A: 211 nM

Q: With `COCCn1cc(C(=O)N2CCC(c3cc(CN)ccc3F)CC2)c2cccc(C3CC3)c21` [Example 6, [4-(5-Aminomethyl-2-fluoro-phenyl)-piperidin-1-yl]-[7-cyclopropyl-1-(2-methoxy-ethyl)-1H-indol-3-yl]-methanone hydrochloride] as the compound, how does the Ki read?
A: 20 nM

System: not given
Experiment: not given
Conditions: not given

Q: With `COCCn1cc(C(=O)N2CCC(c3cc(CN)ccc3F)CC2)c2c(C(=O)N3CCOCC3)cccc21.Cl` [Example 59, [3-[4-(5-Aminomethyl-2-fluoro-phenyl)-piperidine-1-carbonyl]-1-(2-methoxy-ethyl)-1H-indol-4-yl]-morpholin-4-yl-methanone hydrochloride] as the compound, how does the melting point read?
A: 142 to 147 °C

System: β-tryptase
Experiment: not given
Conditions: inhaled; bronchial allergen challenge; cited from earlier work

Q: With `NC(=O)[C@@H]1CCCN1C(=O)[C@H](CCCN=C(N)N)NC(=O)c1ccc2ccccc2c1O` [APC-366] as the compound, how does the “Clinical proof-of-concept for asthma” value read?
A: Clinical proof-of-concept

Same assay, conditions: inhaled; cited from earlier work

Q: With `NC(=O)[C@@H]1CCCN1C(=O)[C@H](CCCN=C(N)N)NC(=O)c1ccc2ccccc2c1O` [APC-366] as the compound, how does the “development outcome / tolerability” value read?
A: terminated due to bronchial irritation
